In ChEMBL document CHEMBL1201862, “PubChem BioAssay data set” (2004):
Calls of active or inactive are those of the source. Cut-off read from the data, not from the text of the source, for most assays here: actives have a measured EC50 and inactives only a lower limit.

How the values were obtained:
[1] = molecular target: T1, Protein RecA (Mycobacterium tuberculosis, UniProt P9WHJ3); experiment: Fluorescence Cell-Free Homogeneous Dose Retest to Identify Inhibitors of RecA-Intein Splicing Activity. [Related pubchem assays (depositor defined):AID2097, AID2223, AID489010, AID492950]; assay type: functional
T1 sequence (P9WHJ3 whole entry): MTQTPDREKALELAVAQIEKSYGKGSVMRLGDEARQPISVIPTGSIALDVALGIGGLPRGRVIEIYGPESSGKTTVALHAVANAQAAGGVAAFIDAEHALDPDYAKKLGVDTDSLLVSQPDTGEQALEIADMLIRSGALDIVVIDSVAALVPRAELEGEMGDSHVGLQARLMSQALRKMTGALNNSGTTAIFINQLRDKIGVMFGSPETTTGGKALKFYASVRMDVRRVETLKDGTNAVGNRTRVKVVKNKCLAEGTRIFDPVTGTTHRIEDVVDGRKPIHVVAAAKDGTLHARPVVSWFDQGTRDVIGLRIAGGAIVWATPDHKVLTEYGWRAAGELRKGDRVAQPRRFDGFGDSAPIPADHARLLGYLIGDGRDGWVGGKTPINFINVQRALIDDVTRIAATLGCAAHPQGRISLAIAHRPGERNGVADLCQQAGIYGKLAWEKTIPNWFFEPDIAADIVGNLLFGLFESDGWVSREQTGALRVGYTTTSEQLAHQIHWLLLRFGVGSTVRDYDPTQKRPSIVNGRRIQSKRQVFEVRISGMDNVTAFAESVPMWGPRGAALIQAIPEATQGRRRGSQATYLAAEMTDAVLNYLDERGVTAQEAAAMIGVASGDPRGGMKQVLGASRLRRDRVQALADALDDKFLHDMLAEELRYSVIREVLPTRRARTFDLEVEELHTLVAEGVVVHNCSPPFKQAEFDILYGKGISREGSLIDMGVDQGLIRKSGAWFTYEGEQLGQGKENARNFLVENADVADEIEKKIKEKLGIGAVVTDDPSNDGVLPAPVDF

[2] = molecular target: T2, Replicative DNA helicase DnaB (Mycobacterium tuberculosis, UniProt P9WMR3); experiment: DnaB intein splicing inhibitors, dose response, biochemical, cell-free fluorescence (AID 449749); assay type: functional
T2 sequence (P9WMR3 whole entry): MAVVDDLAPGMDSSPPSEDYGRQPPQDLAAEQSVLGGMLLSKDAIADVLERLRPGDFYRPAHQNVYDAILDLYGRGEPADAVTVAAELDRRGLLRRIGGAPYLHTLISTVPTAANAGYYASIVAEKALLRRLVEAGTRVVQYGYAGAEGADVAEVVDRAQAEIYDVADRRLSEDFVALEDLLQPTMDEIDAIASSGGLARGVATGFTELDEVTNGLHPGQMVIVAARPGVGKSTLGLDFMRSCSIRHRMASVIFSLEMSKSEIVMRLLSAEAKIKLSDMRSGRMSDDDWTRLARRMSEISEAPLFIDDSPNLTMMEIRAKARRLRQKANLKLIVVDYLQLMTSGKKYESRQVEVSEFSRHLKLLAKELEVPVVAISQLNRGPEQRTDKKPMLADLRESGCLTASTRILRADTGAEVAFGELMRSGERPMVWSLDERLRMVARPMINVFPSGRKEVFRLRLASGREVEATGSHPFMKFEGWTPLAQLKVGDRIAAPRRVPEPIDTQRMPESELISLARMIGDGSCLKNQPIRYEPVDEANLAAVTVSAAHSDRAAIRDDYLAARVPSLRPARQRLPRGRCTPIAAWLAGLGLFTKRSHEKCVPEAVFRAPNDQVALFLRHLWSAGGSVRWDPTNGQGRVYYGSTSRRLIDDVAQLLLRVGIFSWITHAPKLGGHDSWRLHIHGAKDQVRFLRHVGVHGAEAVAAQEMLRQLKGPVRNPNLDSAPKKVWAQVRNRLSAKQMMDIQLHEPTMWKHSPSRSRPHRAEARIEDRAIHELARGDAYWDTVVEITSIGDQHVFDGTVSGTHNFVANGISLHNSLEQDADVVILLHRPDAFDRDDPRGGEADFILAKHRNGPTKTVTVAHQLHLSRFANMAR

[3] = system: H9c2; experiment: cells; assay type: functional, cell-based; details: Rattus norvegicus, H9c2, Myocardium;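 note: confirmatory concentration-response retest of ultra-high-throughput screening hits for modulation of myocardial damage; cell death induced by hydrogen peroxide oxidative stress; compound pretreatment for 60 min then peroxide exposure for 2 h; potency is for protecting the cells against peroxide damage rather than for killing them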
[4] = system: Streptococcus; experiment: Group A Streptococcus viability loss, dose response, counter-screen for streptokinase expression inhibitor project, luminescence, BacTiterGlo (AID 1915); assay type: functional, organism-based;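 note: potency for reduction of bacterial viability or growth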
[5] = system: Streptococcus sp. 'group A'; experiment: growth inhibition of control SK(-) GAS strain, dose response, counter-screen for streptokinase expression inhibitor project, luminescence, kanamycin, BacTiterGlo, confirmation (AID 1900); assay type: functional, organism-based
[6] = molecular target: T3, Streptokinase A (Streptococcus pyogenes serotype M1, UniProt P10520); experiment: S. pyogenes streptokinase expression inhibitors, potency, dose response, plasminogen activation absorbance, OD405 (AID 1914); assay type: functional, Streptococcus pyogenes M1 GAS;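 note: secreted streptokinase activity via plasminogen activation per viability signal from cell pellet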
T3 sequence (P10520 whole entry): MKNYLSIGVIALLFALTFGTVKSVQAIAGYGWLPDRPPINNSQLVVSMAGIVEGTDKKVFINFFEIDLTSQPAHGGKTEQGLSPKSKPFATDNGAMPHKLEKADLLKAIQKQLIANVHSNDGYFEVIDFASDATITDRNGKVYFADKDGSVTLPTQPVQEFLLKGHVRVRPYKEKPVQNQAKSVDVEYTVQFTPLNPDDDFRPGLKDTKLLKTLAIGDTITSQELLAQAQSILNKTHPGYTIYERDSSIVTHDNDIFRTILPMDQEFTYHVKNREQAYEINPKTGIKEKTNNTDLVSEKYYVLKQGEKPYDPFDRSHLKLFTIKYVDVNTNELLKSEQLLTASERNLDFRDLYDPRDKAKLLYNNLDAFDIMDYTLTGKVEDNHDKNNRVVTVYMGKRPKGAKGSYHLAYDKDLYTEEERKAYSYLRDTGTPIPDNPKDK

[7] = inhibitors of intracellular T. cruzi replication, confirmation, NIH3T3 host cells, beta-gal luminescence (AID 2044); assay type: functional, cell-based;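 note: intracellular parasites grown in NIH/3T3 mouse fibroblasts as host cells; luminescent beta-galactosidase reporter signal from transgenic T. cruzi replicating inside host cells; inhibitors lower the luminescence signal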
[8] = cytotoxicity toward NIH3T3 fibroblasts, dose response, counter-screen, cell-based, ATP luminescence, mouse fibroblasts (AID 2010); assay type: functional;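 note: cells exposed to compound for about 90 hours before reading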
[9] = molecular target: T4, Corticotropin-releasing factor receptor 2/Corticotropin-releasing factor-binding protein (Homo sapiens, UniProt P24387+Q13324); experiment: activators of CRF receptor 2 with binding protein – uHTS hits, confirmation (AID 602473); assay type: functional; details: read-out: EC50_Mean
T4 sequence (Q13324 whole entry): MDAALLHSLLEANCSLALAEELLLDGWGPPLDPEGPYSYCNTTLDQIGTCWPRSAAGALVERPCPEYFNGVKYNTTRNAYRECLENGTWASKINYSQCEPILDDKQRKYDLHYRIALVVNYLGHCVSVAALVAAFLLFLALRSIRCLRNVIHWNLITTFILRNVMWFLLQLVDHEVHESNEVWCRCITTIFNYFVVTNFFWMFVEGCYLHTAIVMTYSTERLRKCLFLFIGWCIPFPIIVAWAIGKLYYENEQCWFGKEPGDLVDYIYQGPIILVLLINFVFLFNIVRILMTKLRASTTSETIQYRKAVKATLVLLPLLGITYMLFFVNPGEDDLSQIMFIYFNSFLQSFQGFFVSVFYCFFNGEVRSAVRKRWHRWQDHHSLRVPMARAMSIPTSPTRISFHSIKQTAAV
T4 sequence (P24387 whole entry): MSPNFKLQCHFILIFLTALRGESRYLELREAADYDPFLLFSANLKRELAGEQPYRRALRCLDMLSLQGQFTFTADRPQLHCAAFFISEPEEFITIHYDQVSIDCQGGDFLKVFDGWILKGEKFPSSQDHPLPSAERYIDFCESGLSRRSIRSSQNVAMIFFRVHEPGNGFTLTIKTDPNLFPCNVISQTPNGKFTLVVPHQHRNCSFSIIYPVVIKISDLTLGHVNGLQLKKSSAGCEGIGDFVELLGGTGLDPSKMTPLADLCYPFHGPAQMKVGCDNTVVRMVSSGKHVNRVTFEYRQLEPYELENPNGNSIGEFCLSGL

| Compound | IC50 [3] | EC50 [4] | EC50 [5] | other results |
| --- | --- | --- | --- | --- |
| O=C1CC/[N+](=C\c2ccccc2Cl)[N-]1 |  |  |  | EC50 [1]: 4.02 µM (active); AC50 [2]: 7.23 µM (active) |
| N#Cc1cnn2cc(-c3ncc(C(F)(F)F)cc3Cl)cnc12 | > 79 µM (inactive) |  |  |  |
| Cc1cc2ccccc2c(O)n1 | 23.5 µM (active) |  |  |  |
| Cc1nc(SCC(=O)NCc2ccc(F)cc2)c2c(=O)n(C)c(=O)n(C)c2n1 | > 79 µM (inactive) |  |  |  |
| CCn1c(=O)cc(OCC(=O)Nc2ccccc2C#N)c2ccccc21 | 18.1 µM (active) |  |  |  |
| Cn1c(N)c(C(=O)COC(=O)/C=C/c2ccc(OC(F)F)cc2)c(=O)n(C)c1=O |  | 13.4 µM (active) | 3.34 µM (active) | EC50 [6]: > 150 µM (not active) |
| O=C(O)c1nn(CCOc2ccc(Br)cc2)c(=O)c2ccccc12 | > 79 µM (inactive) |  |  |  |
| N#Cc1ccccc1S(=O)(=O)N1CCN(c2nc(-c3cccnc3)nc3ccccc23)CC1 | 27.7 µM (active) |  |  |  |
| Cc1cc(N)n(-c2nc(-c3cccnc3)nc3ccccc23)n1 | 11.6 µM (active) |  |  |  |
| COc1cc(C(=O)NNC(=S)NC(=O)c2ccc(F)cc2)cc(OC)c1OC |  | 15.5 µM (active) | 3.25 µM (active) | EC50 [7]: 0.791 µM (active); EC50 [8]: 14.9 µM (active); EC50 [6]: > 150 µM (not active) |
| Cc1ccc(N2C(=O)C3CC(c4ccccc4)=C4C5C=CC(C6C(=O)N(c7ccc(C)cc7)C(=O)C56)C4C3C2=O)cc1 (stereo unspecified) |  | 30.9 µM (active) | 1.41 µM (active) | EC50 [6]: > 150 µM (not active) |
| CC1C2=C(O)CC(C)(C)CC2=NC2=C1C(=O)CC(C)(C)C2 (stereo unspecified) |  |  |  | EC50 [9]: > 53 µM (inactive) |
| CC(=O)NC1N=C(C)N(c2ccccc2)C1=O (stereo unspecified) |  |  |  | EC50 [1]: 10.7 µM (active); AC50 [2]: 4.66 µM (active) |
| O=c1c2ccccc2c(-c2ccccc2)nn1Cc1c(Cl)cccc1Cl |  | > 150 µM (not active) | 7.76 µM (active) | EC50 [6]: 17 µM (active) |
| COc1cccc(-c2[nH]nc3c2C(c2ccsc2)C(C#N)=C(N)O3)c1 (stereo unspecified) |  |  |  | EC50 [1]: 0.52 µM (active); AC50 [2]: 2 µM (active) |
| CC1CCCC(C)N1C(=O)CSc1nc(O)c2ccccc2n1 (stereo unspecified) | > 79 µM (inactive) |  |  |  |
| O=C(CSc1nnc(Cc2ccccc2)o1)Nc1cccc(F)c1 |  |  |  | EC50 [1]: 86.1 µM (active); AC50 [2]: 71.3 µM (active) |
| COC(=O)c1ccc(N2CCN(C)CC2)c(NC(=O)COc2ccc(C)cc2)c1 |  | > 150 µM (not active) | > 150 µM (not active) | EC50 [6]: > 150 µM (not active) |
| CC(C)COc1nc2ccccc2c(=O)n1OCC(=O)O | > 79 µM (inactive) |  |  |  |
| COc1ccc(OC)c(N(CC(=O)Nc2cccnc2)S(=O)(=O)c2ccc(OC)c(OC)c2)c1 | 12 µM (active) |  |  |  |
| Oc1nc(Nc2ccc(F)cc2)sc1/C=C1\C=Nc2ccccc21 |  | 18.4 µM (active) | 7.02 µM (active) | EC50 [6]: > 150 µM (not active) |
| CS(=O)(=O)C1=NSC2=NC(=O)/C(=C\c3ccc(OC(=O)c4ccco4)cc3)C(=N)N21 |  |  |  | EC50 [1]: 16 µM (active); AC50 [2]: > 120 µM (inactive) |
| COc1ccc(C(=O)NNC(=O)CCc2nc(O)c3ccccc3n2)cc1 | 26 µM (active) |  |  |  |
| N#CCCN(C(=O)COC(=O)CCc1nc(O)c2ccccc2n1)c1ccccc1F | 13 µM (active) |  |  |  |
| COc1cc(/C=N/NC(=O)c2ccccc2)ccc1OS(=O)(=O)c1ccccc1 | > 79 µM (inactive) |  |  |  |
| O=S(=O)(/N=C(\c1ccc(F)cc1)N1CCOCC1)c1ccccc1 |  |  |  | EC50 [9]: > 53 µM (inactive) |
| O=C(CN(c1cccc(Br)c1)S(=O)(=O)c1ccccc1)N/N=C/c1cc([N+](=O)[O-])ccc1O |  | 0.587 µM (active) | 0.364 µM (active) | EC50 [1]: > 380 µM (inactive); AC50 [2]: > 380 µM (inactive) |
| CCOC(=O)C1=c2/c(=C/c3ccncc3)c(N)c(C(=O)OC)n2C(=O)C(c2ccncc2)S1 (stereo unspecified) | > 79 µM (inactive) |  |  |  |
| CCc1ccc(/C=N/n2c(S)nnc2C2CCCCC2)cc1 |  | 15.1 µM (active) | 11.1 µM (active) | EC50 [6]: > 150 µM (not active) |
| C/C(=N/Nc1nc(-c2ccccc2F)nc2ccccc12)c1ccccc1O |  | > 150 µM (not active) | 10.2 µM (active) | EC50 [6]: > 150 µM (not active) |
